According to ChEMBL document CHEMBL1201862, “PubChem BioAssay data set” (2004):
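Five compound concentrations were applied to cells in 96-well plates for 48 hours; endpoints were derived by simple linear interpolation of the resulting dose-response curve. GI50 is the concentration that inhibits growth by half.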 Calls of active or inactive are those of the source. No stated cut-off is given here; in the data, active = GI50 up to about 1.1 µM and inactive = higher.

How the values were obtained:
Test in all cases: NCI-60 cell line screen, 48 h
SN12C = test system: SN12C
786-0 = test system: 786-0
SF-295 = test system: SF-295
SNB-19 = test system: SNB-19
U-251 = test system: U-251
COLO 205 = test system: COLO 205
HOP-92 = test system: HOP-92
OVCAR-5 = test system: OVCAR-5
NCI-H226 = test system: NCI-H226
BT-549 = test system: BT-549
SK-MEL-2 = test system: SK-MEL-2
KM12 = test system: KM12
NCI/ADR-RES = test system: NCI/ADR-RES
SW-620 = test system: SW-620
MOLT-4 = test system: MOLT-4
UACC-62 = test system: UACC-62
CAKI-1 = test system: CAKI-1
HCC 2998 = test system: HCC 2998
HL-60 = test system: HL-60

Measured: GI50

CC(=O)c1ccc(O)c(CN(C2CCCCC2)C2CCCCC2)c1O
inactive: SN12C > 100 µM | 786-0 > 100 µM | SF-295 > 100 µM | SNB-19 > 100 µM | U-251 > 100 µM | COLO 205 > 100 µM | HOP-92 > 100 µM | OVCAR-5 > 100 µM | NCI-H226 > 100 µM | BT-549 > 100 µM | SK-MEL-2 > 100 µM | KM12 > 100 µM | NCI/ADR-RES > 100 µM | SW-620 81.1 µM | MOLT-4 61.4 µM | UACC-62 > 100 µM | CAKI-1 > 100 µM

O=C1C=C[C@@]23CC1C(O)C[C@H]2C=Cc1ccccc13 (stereo partly drawn)
inactive: SN12C > 100 µM | 786-0 > 100 µM | HCC 2998 > 100 µM | SF-295 > 100 µM | SNB-19 > 100 µM | COLO 205 > 100 µM | HOP-92 > 100 µM | OVCAR-5 > 100 µM | NCI-H226 > 100 µM | SK-MEL-2 > 100 µM | KM12 > 100 µM | SW-620 > 100 µM | MOLT-4 > 100 µM | HL-60 > 100 µM | UACC-62 34.8 µM | CAKI-1 > 100 µM

COC(=O)CNC(=O)CCSc1nnc(COc2ccc(Cl)cc2)n1-c1ccccc1
inactive: SN12C 20.3 µM | 786-0 20.2 µM | HCC 2998 42.9 µM | SF-295 58.5 µM | SNB-19 > 100 µM | U-251 64.3 µM | COLO 205 32.1 µM | HOP-92 33.6 µM | OVCAR-5 47.8 µM | NCI-H226 16 µM | SK-MEL-2 23.4 µM | KM12 34 µM | NCI/ADR-RES 42.6 µM | SW-620 39.5 µM | MOLT-4 24.7 µM | HL-60 30 µM | UACC-62 20.2 µM | CAKI-1 12 µM

C[Si](C)(C)CCOCN(C(=O)C1=CCC2(CC1)OCCO2)c1ccccc1I
inactive: SN12C 28.1 µM | 786-0 17.7 µM | HCC 2998 21.1 µM | SF-295 15.5 µM | SNB-19 19.2 µM | U-251 24.9 µM | COLO 205 37.4 µM | OVCAR-5 20 µM | NCI-H226 22.9 µM | SK-MEL-2 17.5 µM | KM12 18.7 µM | NCI/ADR-RES 26.7 µM | SW-620 22.3 µM | MOLT-4 10.8 µM | UACC-62 16.9 µM | CAKI-1 24.2 µM
active: HOP-92 0.121 µM

ON=C(CC(O)(C(F)(F)Cl)C(F)(F)Cl)CC(O)(C(F)(F)Cl)C(F)(F)Cl
inactive: SN12C 4.67 µM | 786-0 5.21 µM | HCC 2998 4.5 µM | SF-295 7.89 µM | SNB-19 4.25 µM | U-251 3.46 µM | COLO 205 5.04 µM | NCI-H226 4.07 µM | SK-MEL-2 3.03 µM | KM12 8.38 µM | NCI/ADR-RES 4.69 µM | SW-620 > 10 µM | MOLT-4 4.83 µM | HL-60 4.1 µM | UACC-62 3.46 µM | CAKI-1 5.46 µM

CC(C)(/C=N/O)/[N+]([O-])=C/c1ccccc1
inactive: SN12C > 100 µM | 786-0 > 100 µM | HCC 2998 > 100 µM | SF-295 > 100 µM | SNB-19 > 100 µM | U-251 > 100 µM | COLO 205 > 100 µM | HOP-92 > 100 µM | OVCAR-5 > 100 µM | NCI-H226 > 100 µM | SK-MEL-2 > 100 µM | KM12 > 100 µM | NCI/ADR-RES > 100 µM | SW-620 > 100 µM | MOLT-4 > 100 µM | UACC-62 > 100 µM | CAKI-1 > 100 µM

C(/C=N/N=C1NCCCN1)=N\N=C1NCCCN1
inactive: SN12C > 100 µM | 786-0 > 100 µM | HCC 2998 > 100 µM | SF-295 > 10 µM | SNB-19 > 100 µM | U-251 > 100 µM | COLO 205 > 100 µM | HOP-92 56.5 µM | OVCAR-5 > 100 µM | NCI-H226 > 100 µM | BT-549 > 100 µM | KM12 > 100 µM | NCI/ADR-RES > 100 µM | SW-620 > 100 µM | MOLT-4 > 100 µM | UACC-62 > 100 µM | CAKI-1 > 100 µM

COC(=O)c1cc(C)ccc1/C=C1\Cc2cccc(C)c2C1=O
inactive: SN12C 4.9 µM | 786-0 50.4 µM | HCC 2998 47.5 µM | SF-295 30.9 µM | SNB-19 > 100 µM | U-251 36.6 µM | HOP-92 20.4 µM | OVCAR-5 78.7 µM | NCI-H226 58.3 µM | BT-549 17.6 µM | KM12 26.7 µM | SW-620 31.6 µM | MOLT-4 9.35 µM | HL-60 19.7 µM | CAKI-1 49.2 µM
